Assay results taken from PubChem BioAssay (NCI).
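Step 1: Grow cells in 96-well plates. Step 2: Expose to compound for 48 hours at 5 concentrations. Step 3: Interpolate endpoints linearly; if unreached, use highest concentration. At the GI50, growth is halved. Definition used: TGI = concentration required for complete inhibition of growth.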

Tests used:
Test in all cases: DTP human tumour cell line panel, 48 h
[1] = tested on: LXFL 529 NSCLC
[2] = tested on: DMS 273 small cell lung
[3] = tested on: LOX IMVI melanoma
[4] = tested on: SK-MEL-2 melanoma
[5] = tested on: UACC-257 melanoma
[6] = tested on: OVCAR-5 ovarian
[7] = tested on: KM12 colon
[8] = tested on: SNB-19 CNS
[9] = tested on: RPMI-8226 leukemia
[10] = tested on: HCT-15 colon
[11] = tested on: HCC-2998 colon
[12] = tested on: MALME-3M melanoma
[13] = tested on: 786-0 renal
[14] = tested on: SK-MEL-28 melanoma
[15] = tested on: ACHN renal
[16] = tested on: NCI-H460 lung
[17] = tested on: MOLT-4 leukemia
[18] = tested on: HCT-116 colon
[19] = tested on: A498 renal
[20] = tested on: TK-10 renal
[21] = tested on: SF-539 CNS
[22] = tested on: IGROV1 ovarian
[23] = tested on: SW-620 colon
[24] = tested on: NCI-H23 lung
[25] = tested on: HL-60(TB) leukemia
[26] = tested on: SK-OV-3 ovarian
[27] = tested on: NCI-H522 lung
[28] = tested on: M14 melanoma
[29] = tested on: CCRF-CEM leukemia
[30] = tested on: HOP-92 NSCLC
[31] = tested on: DLD-1 colon
[32] = tested on: COLO 205 colon
[33] = tested on: KM20L2 colon
[34] = tested on: SF-268 CNS
[35] = tested on: A549 NSCLC
[36] = tested on: OVCAR-4 ovarian
[37] = tested on: UACC-62 melanoma
[38] = tested on: HOP-62 NSCLC
[39] = tested on: SNB-78 CNS
[40] = tested on: UO-31 renal
[41] = tested on: OVCAR-8 ovarian
[42] = tested on: K-562 leukemia
[43] = tested on: U251 CNS
[44] = tested on: SK-MEL-5 melanoma
[45] = tested on: EKVX NSCLC
[46] = tested on: OVCAR-3 ovarian
[47] = tested on: HT29 colon
[48] = tested on: SF-295 CNS
[49] = tested on: SN12C renal
[50] = tested on: SNB-75 CNS
[51] = tested on: MDA-N
[52] = tested on: BT-549 breast
[53] = tested on: PC-3 prostate
[54] = tested on: SR leukemia
[55] = tested on: DU-145 prostate
[56] = tested on: NCI-H226 lung
[57] = tested on: CAKI-1 renal
[58] = tested on: NCI/ADR-RES ovarian
[59] = tested on: T-47D breast
[60] = tested on: MDA-MB-231 breast
[61] = tested on: MDA-MB-435
[62] = tested on: HS 578T breast
[63] = tested on: MCF7 breast

## CC(C)C(=O)[O-].CC(C)C(=O)[O-].N.N.N.N.[Co+3].[O-][Cl+3]([O-])([O-])[O-]
[1]
  GI50: > 100 µM
  TGI: > 100 µM
[2]
  GI50: > 100 µM
  TGI: > 100 µM
[3]
  GI50: > 100 µM
  TGI: > 100 µM
[4]
  GI50: > 100 µM
  TGI: > 100 µM
[5]
  GI50: > 100 µM
  TGI: > 100 µM
[6]
  GI50: > 100 µM
  TGI: > 100 µM
[7]
  GI50: > 100 µM
  TGI: > 100 µM
[8]
  GI50: > 100 µM
  TGI: > 100 µM
[9]
  GI50: > 100 µM
  TGI: > 100 µM
[10]
  GI50: > 100 µM
  TGI: > 100 µM
[11]
  GI50: > 100 µM
  TGI: > 100 µM
[12]
  GI50: > 100 µM
  TGI: > 100 µM
[13]
  GI50: > 100 µM
  TGI: > 100 µM
[14]
  GI50: > 100 µM
  TGI: > 100 µM
[15]
  GI50: > 100 µM
  TGI: > 100 µM
[16]
  GI50: > 100 µM
  TGI: > 100 µM
[17]
  GI50: > 100 µM
  TGI: > 100 µM
[18]
  GI50: > 100 µM
  TGI: > 100 µM
[19]
  GI50: > 100 µM
  TGI: > 100 µM
[20]
  GI50: > 100 µM
  TGI: > 100 µM
[21]
  GI50: > 100 µM
  TGI: > 100 µM
[22]
  GI50: > 100 µM
  TGI: > 100 µM
[23]
  GI50: > 100 µM
  TGI: > 100 µM
[24]
  GI50: > 100 µM
  TGI: > 100 µM
[25]
  GI50: > 100 µM
  TGI: > 100 µM
[26]
  GI50: > 100 µM
  TGI: > 100 µM
[27]
  GI50: > 100 µM
  TGI: > 100 µM
[28]
  GI50: > 100 µM
  TGI: > 100 µM
[29]
  GI50: > 100 µM
  TGI: > 100 µM
[30]
  GI50: > 100 µM
  TGI: > 100 µM
[31]
  GI50: > 100 µM
  TGI: > 100 µM
[32]
  GI50: > 100 µM
  TGI: > 100 µM
[33]
  GI50: > 100 µM
  TGI: > 100 µM
[34]
  GI50: > 100 µM
  TGI: > 100 µM
[35]
  GI50: > 100 µM
  TGI: > 100 µM
[36]
  GI50: > 100 µM
  TGI: > 100 µM
[37]
  GI50: > 100 µM
  TGI: > 100 µM
[38]
  GI50: > 100 µM
  TGI: > 100 µM
[39]
  GI50: > 100 µM
  TGI: > 100 µM
[40]
  GI50: > 100 µM
  TGI: > 100 µM
[41]
  GI50: > 100 µM
  TGI: > 100 µM
[42]
  GI50: > 100 µM
  TGI: > 100 µM
[43]
  GI50: > 100 µM
  TGI: > 100 µM
[44]
  GI50: > 100 µM
  TGI: > 100 µM
[45]
  GI50: > 100 µM
  TGI: > 100 µM
[46]
  GI50: > 100 µM
  TGI: > 100 µM
[47]
  GI50: > 100 µM
  TGI: > 100 µM
[48]
  GI50: > 100 µM
  TGI: > 100 µM
[49]
  GI50: > 100 µM
  TGI: > 100 µM
[50]
  GI50: > 100 µM
  TGI: > 100 µM

## COC1=C2C=[N+](C)C3C(=C2C=CC1OC)Cc1cc2c(cc13)OCO2 (centres undefined)
[3]
  TGI: 39.6 µM
[4]
  TGI: 29.6 µM
[5]
  TGI: 26.2 µM
[6]
  TGI: 32.1 µM
[7]
  TGI: 10.4 µM
[8]
  TGI: 17.2 µM
[51]
  TGI: 23.6 µM
[9]
  TGI: 27.1 µM
[52]
  TGI: 28.1 µM
[10]
  TGI: 35.3 µM
[53]
  TGI: 39.3 µM
[12]
  TGI: 18.8 µM
[13]
  TGI: 29.6 µM
[14]
  TGI: 47.4 µM
[54]
  TGI: 42 µM
[17]
  TGI: 17.8 µM
[18]
  TGI: 31.5 µM
[19]
  TGI: > 100 µM
[20]
  TGI: 32.4 µM
[21]
  TGI: 24 µM
[23]
  TGI: > 100 µM
[24]
  TGI: 30.6 µM
[55]
  TGI: 27.5 µM
[25]
  TGI: 15.7 µM
[26]
  TGI: 28.3 µM
[56]
  TGI: 38.4 µM
[27]
  TGI: 21.4 µM
[28]
  TGI: 30.1 µM
[57]
  TGI: 29.3 µM
[29]
  TGI: > 100 µM
[30]
  TGI: 49.3 µM
[58]
  TGI: > 100 µM
[59]
  TGI: 18.8 µM
[32]
  TGI: 18.4 µM
[60]
  TGI: 27.8 µM
[34]
  TGI: 20.3 µM
[61]
  TGI: 33.3 µM
[35]
  TGI: 32.4 µM
[36]
  TGI: 22.3 µM
[62]
  TGI: 51.2 µM
[37]
  TGI: 21.6 µM
[63]
  TGI: 21.5 µM
[38]
  TGI: 26.8 µM
[40]
  TGI: 26.6 µM
[41]
  TGI: > 100 µM
[42]
  TGI: 42.5 µM
[43]
  TGI: 30.7 µM
[44]
  TGI: 23.2 µM
[45]
  TGI: 35.6 µM
[46]
  TGI: 13.7 µM
[47]
  TGI: 26.3 µM
[48]
  TGI: 29 µM
[49]
  TGI: 18 µM
[50]
  TGI: 28 µM
